Assay results taken from patent US11273218B2, “Methods for treating Angelman syndrome and related disorders” (Cavion, Inc., priority 2015, dated 2022).
Where two headings read alike, the source gives them in different places.

Key:
[1] = test system: UBE3/129sv mice; test: Audiogenic-induced epilepsy test (Test 1) in Angelman syndrome mouse model; assay type: in vivo; conditions: oral gavage for 7 days, AS mice
Experimental: Three separate tests were performed to determine effects of two compounds, mibefradil and MK-8998 on behavioral and physiological deficits and epilepsy in a mouse model for Angelman syndrome. The tests included: audiogenic-induced epilepsy test (Test 1, T1), a battery of motor/behavioral tests (Test 2, T2) and long-term potentiation measurements (LTP, Test 3, T3). Completion of each test provided a quantitative result of mibefradil or MK-8998 effect on this test. For all three tests, 2 separate groups of mice were generated: group 1 for test 1 and group 2 for tests 2 and 3, as shown below in see Table 2 and each group consists of 6 subgroups, a-f.
For all behavioral and electrophysiology experiments female Ube3am^−/p^+KO mice (i.e., AS mice) were crossed with wild-type males, to generate heterozygous AS mice and littermate controls in the F1 hybrid 12952-C57BL/6 background. For epilepsy tests, AS mice are crossed with controls in the 12952/SvPasCrl background. In total, 2 groups of mice are required: group 1 for the epilepsy test (Table 2, group 1a-f) and group 2 for the behavioral test battery and electrophysiology (Table 2, group 2a-f). […] The number of mice used per test/subgroup is indicated in Table 2 and ranges from 5-7 mice/subgroup for electrophysiology, 10 mice/subgroup for epilepsy test, and 12 to 15 mice/subgroup for behavioral test battery. […]

[2] = test system: CaMKIIα; conditions: striatum, cited from earlier work

CC(C)c1ccc(CC(=O)N[C@H](C)c2ccc(OCC(F)(F)F)cn2)cc1 [MK-8998]
treated animals with seizures eliminated completely ([1]; 60 mg/kg, audiogenic-induced seizures): about 80%
effect on audiogenic-induced seizures (in words) ([1]; 10, 30, 60 mg/kg): eliminated seizures in a dose-dependent manner

[Cl][Ni][Cl] [NiCl2]
decrease of threonine autophosphorylation of CaMKIIα ([2]; 100 μM): 35%

COCC(=O)O[C@]1(CCN(C)CCCc2nc3ccccc3[nH]2)CCc2cc(F)ccc2[C@@H]1C(C)C [mibefradil]
decrease of threonine autophosphorylation of CaMKIIα ([2]; 5 μM): 37%
